According to patent US20030083336A1, “Phenylpiperazinyl derivatives” (H. Lundbeck A/S, priority 1999, published 2003):
Structures can show the parent of a compound that is named as a salt.

Assays:
[1] = target: T1, human cloned dopamine D4.2 receptors (Homo sapiens, UniProt P21917, DEL265-296); assay: Inhibition of the binding of 3H-YM-09151-2 to human dopamine D4 receptors; conditions: [3H]YM-09151-2 0.06 nM; for IC50: membranes of CHO-cells, read-out: D4-bind. IC50
T1 construct: expressed in transfected cells; host or cells: CHO cells
T1 sequence (P21917 with tags, fused parts or gaps DEL265-296): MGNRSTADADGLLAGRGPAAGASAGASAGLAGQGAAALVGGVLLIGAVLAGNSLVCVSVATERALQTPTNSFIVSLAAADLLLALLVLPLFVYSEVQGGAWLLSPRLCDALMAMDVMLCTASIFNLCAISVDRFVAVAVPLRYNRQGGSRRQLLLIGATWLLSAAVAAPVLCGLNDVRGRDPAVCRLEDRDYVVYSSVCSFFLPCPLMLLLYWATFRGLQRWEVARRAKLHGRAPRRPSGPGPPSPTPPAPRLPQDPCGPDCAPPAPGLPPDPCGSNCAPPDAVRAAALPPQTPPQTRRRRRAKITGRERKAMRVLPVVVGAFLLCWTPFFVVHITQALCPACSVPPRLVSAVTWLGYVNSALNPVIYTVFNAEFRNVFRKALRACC
Method: Inhibition of the Binding of ^3H-YM-09151-2 to Human Dopamine D4 Receptors
By this method the inhibition by drugs of the binding of [^3H]YM-09151-2 (0.06 nM) to membranes of human cloned dopamine D4.2 receptors expressed in CHO-cells is determined in vitro. Method modified from NEN Life Science Products, Inc., technical data certificate PC2533-10/96. The results are given in the following Table 1 as IC50-values or as percent inhibition of the binding of ^3H-YM-09151 -2 at the concentration of the test compound indicated.

[2] = target: T2, human cloned dopamine D3 receptors (Homo sapiens, UniProt P35462); assay: Inhibition of the binding of [3H]-Spiperone to human D3 receptors; conditions: [3H]Spiperone 0.3 nM; for IC50: membranes of CHO-cells, read-out: D3-bind. IC50; for inhibition at 0.05 µM: test compound at 50 nM, read-out: D3-bind. % inhibition of binding at 50 nM
T2 construct: expressed in transfected cells; host or cells: CHO cells
Method: Inhibition of the Binding of [^3H]-Spiperone to Human D3 Receptors
By this method the inhibition by drugs of the binding [^3H]Spiperone (0.3 nM) to membranes of human cloned dopamine D3 receptors expressed in CHO-cells is determined in vitro. Method modified from R. G. MacKenzie et al. Eur. J. Pharm.-Mol. Pharm. Sec. 1994, 266, 79-85. The results are given in the following Table 1 as IC50-values or as percent inhibition of the binding of ^3H-Spiperone at the concentration of the test compound indicated.

D4 receptor = target: T3, D4 receptor (Homo sapiens, UniProt P21917); conditions: various in vitro efficacy assays; cited from earlier work
T3 sequence (P21917 1-419): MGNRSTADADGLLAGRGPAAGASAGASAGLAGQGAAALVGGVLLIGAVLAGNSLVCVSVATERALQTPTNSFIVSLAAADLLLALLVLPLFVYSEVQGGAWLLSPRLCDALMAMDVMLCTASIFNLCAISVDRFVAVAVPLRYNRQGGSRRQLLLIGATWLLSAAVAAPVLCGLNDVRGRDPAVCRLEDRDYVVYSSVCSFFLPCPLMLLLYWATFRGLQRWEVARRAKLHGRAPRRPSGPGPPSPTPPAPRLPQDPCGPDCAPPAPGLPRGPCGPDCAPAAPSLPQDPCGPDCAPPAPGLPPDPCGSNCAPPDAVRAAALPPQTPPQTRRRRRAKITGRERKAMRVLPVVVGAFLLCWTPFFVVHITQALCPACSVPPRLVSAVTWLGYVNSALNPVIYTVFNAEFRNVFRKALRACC

T2 sequence (P35462 whole entry): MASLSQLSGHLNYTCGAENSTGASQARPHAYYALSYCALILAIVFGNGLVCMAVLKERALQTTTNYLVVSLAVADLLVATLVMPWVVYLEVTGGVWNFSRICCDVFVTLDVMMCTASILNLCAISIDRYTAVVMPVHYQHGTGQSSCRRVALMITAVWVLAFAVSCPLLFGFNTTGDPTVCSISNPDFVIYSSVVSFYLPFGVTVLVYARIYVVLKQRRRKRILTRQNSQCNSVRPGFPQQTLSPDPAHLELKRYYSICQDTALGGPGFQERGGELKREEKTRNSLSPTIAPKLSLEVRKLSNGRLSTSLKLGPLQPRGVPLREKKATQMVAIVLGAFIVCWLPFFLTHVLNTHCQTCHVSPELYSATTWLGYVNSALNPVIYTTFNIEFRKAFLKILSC

SMILES | IC50 [1] | inhibition at 0.05 µM [2] | further results
Cc1c(N2CCOCC2)cccc1N1CCN(CCCc2c[nH]c3ccc(F)cc23)CC1 (as salt: HCl) [Compound 1d, 1-[2-methyl-3-(morpholin-4-yl)phenyl]-4-[3-(5-fluoro-1H-indol-3-yl)propyl]piperazine] | – | – | melting point: 212 to 215 °C
Cc1c(N2CCOCC2)cccc1N1CCN(CCCc2c[nH]c3ccccc23)CC1 (hydrate or solvate) [Compound 1b, 1-[3-(1H-Indol-3-yl)propyl]-4-[2-methyl-3-(morpholin-4-yl)-phenyl]piperazine] | – | – | melting point: 112 to 113 °C
Cc1c(N2CCOCC2)cccc1N1CCN(CCCCc2c[nH]c3ccccc23)CC1 [Compound 1c, 1-[2-methyl-3-(morpholin-4-yl)phenyl]-4-[4-(1H-indol-3-yl)butyl]piperazine] | 15 nM | – | melting point: 111 to 113 °C; IC50 [2]: 130 nM
Cc1c(N2CCOCC2)cccc1N1CCN(CCCCc2c[nH]c3ccc(F)cc23)CC1 [Compound 1e, 1-[2-metlyl-3-(morpholin-4-yl)phenyl]-4-[4-(5-fluoro-1H-indol-3-yl)butyl]piperazine] | 14 nM | – | melting point: 112 to 114 °C; IC50 [2]: 63 nM
CCN(CC)c1cccc(Oc2cccc(N3CCN(CCCCc4c[nH]c5ccc(F)cc45)CC3)c2C)c1 [Compound 2k, 1-{3-[3-(Diethylamino)phenoxy]-2-methylphenyl}-4-[4-(5-fluoro-1H-indol-3-yl)butyl]piperazine] | 40 nM | 96% | –
Cc1c(N2CCOCC2)cccc1N1CCN(CCCc2c[nH]c3ccc(Cl)cc23)CC1 [Compound 2l, 1-[3-(Morpholin-4-yl)-2-methylphenyl]-4-[3-(5-chloro-1H-indol-3-yl)propyl]piperazine] | 30 nM | 40% | –
Cc1c(Oc2cccc(N(C)C)c2)cccc1N1CCN(CCCc2c[nH]c3ccc(Cl)cc23)CC1 [Compound 2m] | 57 nM | 74% | –
Cc1c(N2CCN(CCCc3c[nH]c4ccccc34)CC2)cccc1N1CCC[C@H]1CO [Compound 2o, (S)-1-[3-(2-Hydroxymethylpyrrolidin-1-yl)-2-methylphenyl]-4-[3-(1H-indol-3-yl)propyl]piperazine] | 52 nM | 19% | –
Cc1c(N2CCN(CCCc3c[nH]c4ccc(F)cc34)CC2)cccc1N1CCC[C@H]1CO [Compound 2p, (S)-1-[3-(2-Hydroxymethylpyrrolidin-1-yl)-2-methylphenyl]-4-[3-(5-fluoro-1H-indol-3-yl)propyl]piperazine] | – | 54% | inhibition at 0.05 µM ([1]; test compound at 50 nM, read-out: D4-bind. % inhibition of binding at 50 nM): 67%
Cc1c(Oc2ccc3c(c2)OCO3)cccc1N1CCN(CCCc2c[nH]c3ccc(F)cc23)CC1 [Compound 2q, 1-[3-(1,3-Benzodioxolan-5-yloxy)-2-methylphenyl]-4-[3-(5-fluoro-1H-indol-3-yl)propyl]piperazine] | 43 nM | 61% | –
Cc1c(Oc2cccc(N(C)C)c2)cccc1N1CCN(CCCCc2c[nH]c3c(F)cc(F)cc23)CC1 [Compound 2r, 1-{3-[3-(Dimethylamino)phenoxy]-2-methylphenyl}-4-[4-(5,7-difluoro-1H-indol-3-yl)butyl]piperazine] | 62 nM | 90% | –
Cc1c(N2CCN(CCCc3c[nH]c4c(F)cc(F)cc34)CC2)cccc1N1CCC[C@H]1CO [Compound 2s, (S)-1-[3-(2-Hydroxymethylpyrrolidin-1-yl)-2-methylphenyl]-4-[3-(5,7-difluoro-1H-indol-3-yl)propyl]piperazine] | 41 nM | 36% | –
Cc1c(Oc2ccc3c(c2)OCO3)cccc1N1CCN(CCCc2c[nH]c3c(F)cc(F)cc23)CC1 [Compound 2t, 1-[3-(1,3-Benzodioxolan-5-yloxy)-2-methylphenyl]-4-[3-(5,7-difluoro-1H-indol-3-yl)propyl]piperazine] | 47 nM | 54% | –
Cc1c(N2CCN(CCCc3c[nH]c4c(F)cc(F)cc34)CC2)cccc1N1CC(C)OC(C)C1 (stereo not drawn) [Compound 2w, 1-[3-(2,6-Dimethylmorpholin-4-yl)-2-methylphenyl]-4-[3-(5,7-difluoro-1H-indol-3-yl)propyl]piperazine] | 34 nM | 43% | –
CCN(CC)c1cccc(Oc2cccc(N3CCCN(CCCc4c[nH]c5c(F)cc(F)cc45)CC3)c2C)c1 [Compound 2x, 1-{3-[3-(Diethylamino)phenoxy]-2-methylphenyl}-4-[3-(5,7-difluoro-1H-indol-3-yl)propyl]-1,4-diazepane] | 76 nM | 66% | –
Cc1c(Oc2cccc(N(C)C)c2)cccc1N1CCN(CCCc2c[nH]c3c(F)cc(F)cc23)CC1 [Compound 2z, 1-{3-[3-(Dimethylamino)phenoxy]-2-methylphenyl}-4-[3-(5,7-difluoro-1H-indol-3-yl)propyl]piperazine] | 32 nM | 59% | –
CC(C)Oc1cccnc1N(C)C1CCN(Cc2ccccc2)CC1 [Compound U-101958] | – | – | Functional activity at D4 receptor (literature) (D4 receptor): partial D4 receptor agonists
